Values belong to the compound of their own block, whether it stands above or below them.
Columns and labels:
Assay type in all cases: functional
A498 = experiment: Antiproliferative activity against human A498 cells after 48 hrs by SRB protein assay; settings: A498, 48 h
SNB-75 = experiment: Antiproliferative activity against human SNB75 cells after 48 hrs by SRB protein assay; settings: SNB-75, 48 h
NCI-H522 = experiment: Antiproliferative activity against human NCI-H522 cells after 48 hrs by SRB protein assay; settings: NCI-H522, 48 h
T47D = experiment: Antiproliferative activity against human T47D cells after 48 hrs by SRB protein assay
NCI/ADR-RES = experiment: Antiproliferative activity against human NCI/ADR-RES cells after 48 hrs by SRB protein assay
Malme-3M = experiment: Antiproliferative activity against human MALME3M cells after 48 hrs by SRB protein assay
MDA-MB-231 = experiment: Antiproliferative activity against human MDA-MB-231 cells after 48 hrs by SRB protein assay; settings: MDA-MB-231, 48 h
K562 = experiment: Antiproliferative activity against human K562 cells after 48 hrs by SRB protein assay; settings: K562, 48 h
MDA-MB-435 = experiment: Antiproliferative activity against human MDA-MB-435 cells after 48 hrs by SRB protein assay; settings: MDA-MB-435, 48 h
HT-29 = experiment: Antiproliferative activity against human HT29 cells after 48 hrs by SRB protein assay; settings: HT-29, 48 h
HCT-116 = experiment: Antiproliferative activity against human HCT116 cells after 48 hrs by SRB protein assay; settings: HCT-116, 48 h
MCF7 = experiment: Antiproliferative activity against human MCF7 cells after 48 hrs by SRB protein assay; settings: MCF7, 48 h
U-251 = experiment: Antiproliferative activity against human U251 cells after 48 hrs by SRB protein assay; settings: U-251, 48 h
IGROV-1 = experiment: Antiproliferative activity against human IGROV1 cells after 48 hrs by SRB protein assay; settings: IGROV-1, 48 h
OVCAR-3 = experiment: Antiproliferative activity against human OVCAR-3 cells after 48 hrs by SRB protein assay; settings: OVCAR-3, 48 h
HOP-62 = experiment: Antiproliferative activity against human HOP62 cells after 48 hrs by SRB protein assay; settings: HOP-62, 48 h
M14 = experiment: Antiproliferative activity against human M14 cells after 48 hrs by SRB protein assay; settings: M14, 48 h
SK-OV-3 = experiment: Antiproliferative activity against human SKOV3 cells after 48 hrs by SRB protein assay; settings: SK-OV-3, 48 h
HCC 2998 = experiment: Antiproliferative activity against human HCC2998 cells after 48 hrs by SRB protein assay; settings: HCC 2998, 48 h
CAKI-1 = experiment: Antiproliferative activity against human CAKI1 cells after 48 hrs by SRB protein assay; settings: CAKI-1, 48 h
COLO 205 = experiment: Antiproliferative activity against human COLO205 cells after 48 hrs by SRB protein assay; settings: COLO 205, 48 h
SR = experiment: Antiproliferative activity against human SR cells after 48 hrs by SRB protein assay
HOP-92 = experiment: Antiproliferative activity against human HOP92 cells after 48 hrs by SRB protein assay; settings: HOP-92, 48 h
RXF 393 = experiment: Antiproliferative activity against human RXF393 cells after 48 hrs by SRB protein assay; settings: RXF 393, 48 h
NCI-H460 = experiment: Antiproliferative activity against human NCI-H460 cells after 48 hrs by SRB protein assay; settings: NCI-H460, 48 h
UO-31 = experiment: Antiproliferative activity against human UO31 cells after 48 hrs by SRB protein assay; settings: UO-31, 48 h
ACHN = experiment: Antiproliferative activity against human ACHN cells after 48 hrs by SRB protein assay
SK-MEL-5 = experiment: Antiproliferative activity against human SK-MEL-5 cells after 48 hrs by SRB protein assay; settings: SK-MEL-5, 48 h
MOLT-4 = experiment: Antiproliferative activity against human MOLT4 cells after 48 hrs by SRB protein assay; settings: MOLT-4, 48 h
LOX IMVI = experiment: Antiproliferative activity against human LOXIMVI cells after 48 hrs by SRB protein assay
UACC-62 = experiment: Antiproliferative activity against human UACC62 cells after 48 hrs by SRB protein assay; settings: UACC-62, 48 h
RPMI-8226 = experiment: Antiproliferative activity against human RPMI8226 cells after 48 hrs by SRB protein assay; settings: RPMI-8226, 48 h
SF-295 = experiment: Antiproliferative activity against human SF295 cells after 48 hrs by SRB protein assay; settings: SF-295, 48 h
CCRF-CEM = experiment: Antiproliferative activity against human CCRF-CEM cells after 48 hrs by SRB protein assay
SN12C = experiment: Antiproliferative activity against human SN12C cells after 48 hrs by SRB protein assay
NCI-H226 = experiment: Antiproliferative activity against human NCI-H226 cells after 48 hrs by SRB protein assay; settings: NCI-H226, 48 h

SMILES: N#Cc1c(N)nc(N2CCOCC2)c(C#N)c1-c1c(Cl)cccc1Cl
- GI50 (T47D): 3.39 µM
- GI50 (NCI/ADR-RES): 2.34 µM
- GI50 (Malme-3M): 3.72 µM
- GI50 (MDA-MB-231): 3.55 µM
- GI50 (K562): 3.31 µM
- GI50 (MDA-MB-435): 1.55 µM
- GI50 (HT-29): 3.31 µM
- GI50 (HCT-116): 3.09 µM
- GI50 (A498): 3.72 µM
- GI50 (MCF7): 2.95 µM
- GI50 (U-251): 3.89 µM
- GI50 (SNB-75): 1.74 µM
- GI50 (IGROV-1): 2 µM
- GI50 (OVCAR-3): 2.4 µM
- GI50 (HOP-62): 3.55 µM
- GI50 (M14): 2.45 µM
- GI50 (SK-OV-3): 4.07 µM
- GI50 (HCC 2998): 0.0182 µM
- LC50 (HCC 2998): 20 µM
- TGI (HCC 2998; read-out: Log TGI (converted)): 2.45 µM
- GI50 (NCI-H522): 2.34 µM
- GI50 (CAKI-1): 2.24 µM

SMILES: COc1cc(-c2c(C#N)c(N)nc(N3CCOCC3)c2C#N)cc(OC)c1OC
- GI50 (SR): 13.5 µM
- GI50 (T47D): 15.1 µM
- GI50 (COLO 205): 5.62 µM
- GI50 (SNB-75): 1.62 µM
- GI50 (HCC 2998): 5.89 µM

SMILES: N#Cc1c(N)nc(N2CCOCC2)c(C#N)c1-c1cccnc1
- GI50 (HCC 2998): 8.71 µM

SMILES: N#Cc1c(N)nc(N2CCOCC2)c(C#N)c1-c1ccc(Cl)cc1
- GI50 (HOP-92): 8.91 µM
- GI50 (A498): 8.13 µM
- GI50 (SNB-75): 14.5 µM
- GI50 (IGROV-1): 14.1 µM
- GI50 (RXF 393): 0.479 µM

SMILES: N#Cc1c(N)nc(N2CCSCC2)c(C#N)c1-c1ccc(O)cc1
- GI50 (SR): 11.2 µM
- GI50 (HOP-92): 10 µM
- GI50 (SNB-75): 11 µM
- GI50 (HOP-62): 12.6 µM

SMILES: N#Cc1c(N)nc(N2CCOCC2)c(C#N)c1-c1cccc(O)c1
- GI50 (A498): 14.8 µM
- GI50 (SNB-75): 17.4 µM
- GI50 (IGROV-1): 18.6 µM

SMILES: Cc1ccc(-c2c(C#N)c(N)nc(N3CCOCC3)c2C#N)o1
- GI50 (SNB-75): 2.75 µM

SMILES: N#Cc1c(NCc2ccccc2)nc(NCc2ccccc2)c(C#N)c1-c1cccc(O)c1
- GI50 (SR): 2.09 µM
- GI50 (MDA-MB-231): 2.24 µM
- GI50 (ACHN): 2.63 µM
- GI50 (SK-MEL-5): 1.7 µM
- GI50 (HOP-92): 2.51 µM
- GI50 (MDA-MB-435): 2.88 µM
- GI50 (MOLT-4): 3.31 µM
- GI50 (LOX IMVI): 2.95 µM
- GI50 (A498): 2 µM
- GI50 (UACC-62): 2.09 µM
- GI50 (OVCAR-3): 3.31 µM
- GI50 (RPMI-8226): 3.09 µM
- GI50 (SF-295): 2.95 µM
- GI50 (CCRF-CEM): 3.39 µM
- GI50 (SN12C): 2.29 µM
- GI50 (NCI-H226): 2.88 µM
- GI50 (CAKI-1): 2.75 µM

SMILES: N#Cc1c(N)nc(N2CCOCC2)c(C#N)c1-c1ccccn1
- GI50 (UACC-62): 0.0339 µM
- GI50 (SN12C): 0.038 µM
- GI50 (NCI-H226): 0.513 µM

Now from value to compound, other results behind:

- GI50 (NCI-H522): 0.0234 µM
SMILES: N#Cc1c(N)nc(N2CCOCC2)c(C#N)c1-c1ccccc1Cl
- GI50 (A498): 2.29 µM
- GI50 (SNB-75): 0.417 µM
- TGI (NCI-H522; read-out: Log TGI (converted)): 2.82 µM

- GI50 (T47D): 0.832 µM
- GI50 (COLO 205): 2.14 µM
- GI50 (SK-OV-3): 5.01 µM
- GI50 (NCI-H522): 8.71 µM
SMILES: COc1ccc(-c2c(C#N)c(N)nc(N3CCOCC3)c2C#N)cc1
- GI50 (A498): 7.41 µM
- GI50 (IGROV-1): 3.09 µM

- GI50 (SK-OV-3): 12 µM
SMILES: COc1ccc(OC)c(-c2c(C#N)c(N)nc(N3CCOCC3)c2C#N)c1
- GI50 (SNB-75): 12.9 µM

- GI50 (T47D): 12.6 µM
- GI50 (HCC 2998): 13.5 µM
SMILES: N#Cc1c(N)nc(N2CCOCC2)c(C#N)c1-c1ccncc1
- GI50 (Malme-3M): 9.12 µM
- GI50 (A498): 18.6 µM
- GI50 (IGROV-1): 12.3 µM

- GI50 (NCI-H460): 9.33 µM
- GI50 (MDA-MB-435): 5.75 µM
- GI50 (MCF7): 8.71 µM
- GI50 (NCI-H522): 4.79 µM
SMILES: N#Cc1c(N)nc(N2CCOCC2)c(C#N)c1-c1ccc(Cl)cc1Cl
- GI50 (HOP-92): 3.31 µM
- GI50 (A498): 2.69 µM
- GI50 (UO-31): 3.24 µM
- GI50 (SNB-75): 6.31 µM
- GI50 (IGROV-1): 6.61 µM
- GI50 (RXF 393): 5.62 µM
